Data as given in patent US20030118985A1, “Mouse monoclonal antibody (5-21-3) to human immunodeficiency virus gp41 protein” (priority 1997, published 2003).

Columns and labels:
[1] = test system: monoclonal antibody 10-15-63; test: Immunoprecipitation of [125I] synthetic peptides by 10-15-63; format: binding, mouse
Procedure: (§1) Synthetic peptides were radiolabeled with ^125I (Amersham) by the chloramine T method (N. M. Hunter, “Radioimmunoassay” in D. M. Weir, Ed., Handbook of Experimental Immunology, [Blackwell Scientific Publications, 1973]). Generally, 2-6 ul of 100 mCi/ml ^125I were added to 10-50 ug of peptide in PBS, pH 7.4. Approximately 10 ug of freshly prepared (1 mg/ml in PBS) chloramine T were added to the mixture maintained at 4° C. After 5 min., [^125I]peptide was separated from free ^125I by passage of the reaction mixture through a 3 ml (bed volume) column of Biogel P-6 or P-2, as required. Fractions (200 ul each) containing [^125I]peptide were pooled and diluted into PBS containing 20% fetal calf serum. Rough estimations of ^125I cpm bound to peptide were made by acid precipitation. An aliquot of labeled peptide was diluted into 1 ml of ice cold 50% trichloroacetic acid (TCA) overlaying a 0.45 um filter (made of mixed cellulose esters) set on a scintered glass filter connected to a vacuum apparatus. Precipitated protein was fixed onto the filter by application of vacuum, and filters were washed with ice-cold 50% TCA. Background cpm adhering non-specifically to the filter were estimated by repeating the procedure using a non-precipitating buffer. Amounts of peptide, ^125I, chloramine T, and composition of column eluting buffer were subject to change depending on conditions required to maintain solubility of each peptide.
(§2) Synthetic peptides radiolabeled with ^125I were diluted into PBS (pH 7.4) containing 0.1% Triton X-100 (or other detergents where indicated) and 1.0% BSA, to yield approximately 2.5-5×10^5 acid-precipitable cpm per 0.1 ml. Purified monoclonal IgG 5-21-3 and 10-15-63 were employed in the assay. Monoclonal antibodies were diluted into PBS containing 0.1% Triton X-100 (or other detergents where indicated), 1.0% BSA, and 2% normal mouse serum as a carrier immunoglobulin. Immune rabbit serum (anti-P58-130) was diluted appropriately into the same buffer except that normal rabbit serum (2%) was substituted for normal mouse serum as the carrier immunoglobulin. A reaction mixture comprising 0.1 ml [^125I] peptide (5×10^5 cpm/0.1 ml) and 0.1 ml diluted antibody was incubated 1 hr at 40° C., followed by addition of 0.1 ml of a precipitating antibody, either goat anti-mouse IgG, or goat anti-rabbit IgG, corresponding to the primary antibody. The reaction mixture was incubated 1 hr at 40° C. and then overnight at 4° C. […] Precipitation assays employing Protein A-Sepharose as the precipitating reagent were performed in a similar manner, except that normal sera were omitted from the reaction mixtures.

[2] = test system: monoclonal antibody 5-21-3; test: Immunoprecipitation of [125I] synthetic peptides by 5-21-3; format: binding, mouse
Procedure: as §1, §2

[3] = test system: binding of antibody 5-21-3 to rp41; test: Binding inhibition assay: peptides inhibit binding of 5-21-3 to rp41; set-up: species or system HIV I
Procedure: Additional evidence for the conformationl nature of the 5-21-3 epitope was obtained using binding inhibition studies, in which synthetic peptides were ranked for their ability to inhibit binding of 5-21-3 to rp41. First, the Fab dimer of an anti-gp41 monoclonal antibody was prepared by conventional methods (Goding et al., supra). Then 100 ul of a 1 mg/ml solution of the Fab dimer in bicarbonate buffer (pH 9.6) was coated onto Immulon II microtiter plates for 1 hr at 37° C. After washing with PBS containing 0.05% Tween 20, the plates were overcoated with 200 ul of 1.0% ovalbumin in bicarbonate buffer (pH 9.6) for 1 hr at 30° C. After washing, 100 ul of rp41 enriched E. coli lysate (as described in Example 3), diluted appropriately in PBS containing 0.05% Tween 20, were allowed to bind to the Fab dimer for 2 hr at 30° C. The plates were washed and stored at 4° C.
Intact monoclonal antibody 5-21-3 IgG (purified from tissue culture fluid supporting growth of the cloned cell line 5-21-3) was titrated against the bound rp41 on the plate, and an antibody concentration was selected which yielded an A492 value of 2.0-3.0. Usually, 0.4 pmol (0.06 ug) of 5-21-3 IgG per microtiter well was employed in these assays. Stock solutions of 5-21-3 IgG were prepared in PBS containing 0.1% Triton X-100 and 0.1% SDS. Dilutions of synthetic peptides were made in the same buffer (SDS was included in these experiments to keep peptides soluble at high concentrations).
The binding inhibition assay was performed by combining 0.15 ml of 1.2 ug/ml 5-21-3 antibody stock solution with 0.15 ml of peptide at a selected peptide concentration, and incubating the reaction mixture 1 hr at room temp. Then 0.1 ml aliquots of each reaction mixture were added to each of two wells in the microtiter tray. After a 1 hr incubation at room temp., the plates were washed, and HRPO conjugated Goat anti-mouse IgG Fc was added for 1 hr at room temp. The plates were washed, and addition of OPD for color development identified the relative amounts of 5-21-3 bound to rp41 in the microtiter wells. The reaction was stopped by addition of 100 ul of 1N H2SO4, and the plates were read on a Dynatech II microtiter plate reader.

[4] = test system: Rabbit (R) anti-P58-130 serum; test: Immunoprecipitation of [125I] synthetic peptides by rabbit anti-P58-130 serum; format: binding
Procedure: as §1, §2

[5] = test system: monoclonal antibody 5-21-3; test: Immuno-dot blot of synthetic peptides with 5-21-3; format: binding, mouse; conditions: 25 ug/ml 5-21-3; mild washing procedures
Excerpt: The western Blot procedure described in Example 1 was employed for development of immuno-dot blots using synthetic peptides, except that synthetic peptides were fixed to nitrocellulose by direct application using Drummond lambda pipettes, and air dried prior to blocking with 20% fetal calf serum in PBS (pH 7.4).

NH2-Asp-Arg-Glu-Ile-Asn-Asn-Tyr-Thr-Ser-Leu-Ile-His-Ser-Leu-Ile-Glu-Glu -Ser-Gln-Asn-Gln-Gln-Glu-Lys-Asn-Glu-Gln-Glu-Leu-Leu-Glu-Leu-Asp-Lys-COOH (H-DREINNYTSLIHSLIEESQNQQEKNEQELLELDK-OH) [P121-154]
SPECIFIC PRECIPITATION (CPM) ([1]; 10-15-63 1.0 μg/ml final): 0 CPM
x-fold increase of specific over non-specific precipitation ([1]; 10-15-63 1.0 μg/ml final): (0) x-fold
SPECIFIC PRECIPITATION (CPM) by 10-15-63 ([1]; 10-15-63 10 μg/0.2 ml, PBS, 0.1% Triton X-100, 1.0% BSA, carrier serum, second antibody precipitation): 371 CPM
x-fold increase of specific over non-specific precipitation, 10-15-63 ([1]; 10-15-63 10 μg/0.2 ml, second antibody precipitation, vs normal mouse IgG): (1.3) x-fold
SPECIFIC PRECIPITATION (CPM) ([1]; 10-15-63 10.0 μg/ml final): 0 CPM
x-fold increase of specific over non-specific precipitation ([1]; 10-15-63 10.0 μg/ml final): (0) x-fold
SPECIFIC PRECIPITATION (CPM) ([1]; 10-15-63 100.0 μg/ml final): 0 CPM
x-fold increase of specific over non-specific precipitation ([1]; 10-15-63 100.0 μg/ml final): (0) x-fold
binding of [125I]peptide by 5-21-3 (immunoprecipitation), in words [2]: recognized by 5-21-3
SPECIFIC PRECIPITATION (CPM) ([2]; 5-21-3 1.0 μg/ml final): 0 CPM
x-fold increase of specific over non-specific precipitation ([2]; 5-21-3 1.0 μg/ml final): (0) x-fold
SPECIFIC PRECIPITATION (CPM) by 5-21-3 ([2]; 5-21-3 10 μg/0.2 ml, PBS, 0.1% Triton X-100, 1.0% BSA, carrier serum, second antibody precipitation): 40,717 CPM
x-fold increase of specific over non-specific precipitation, 5-21-3 ([2]; 5-21-3 10 μg/0.2 ml, second antibody precipitation, vs normal mouse IgG): (31) x-fold
SPECIFIC PRECIPITATION (CPM) ([2]; 5-21-3 10.0 μg/ml final): 1,113 CPM
x-fold increase of specific over non-specific precipitation ([2]; 5-21-3 10.0 μg/ml final): (2.3) x-fold
SPECIFIC PRECIPITATION (CPM) ([2]; 5-21-3 100.0 μg/ml final): 18,984 CPM
x-fold increase of specific over non-specific precipitation ([2]; 5-21-3 100.0 μg/ml final): (13) x-fold
fold less active than P67-154 in binding inhibition [3]: 20 fold
fold restoration of binding inhibition activity relative to P131-154 [3]: 20-65 fold
inhibition of 5-21-3 binding to rp41, in words [3]: potent inhibitor
Molar Ratio at 50% inhibition of 5-21-3 binding ([3]; mean of two experiments, 0.4 pmol 5-21-3 IgG per well): 1,494 pmoles peptide/pmoles 5-21-3
precipitation of [125I]peptide by rabbit anti-P58-130, in words [4]: strong precipitator
SPECIFIC PRECIPITATION (CPM) by RαP58-130 ([4]; rabbit anti-P58-130 serum 20 ul/0.2 ml, second antibody precipitation): 310,419 CPM
x-fold increase of specific over non-specific precipitation, RαP58-130 ([4]; rabbit anti-P58-130 serum 20 ul/0.2 ml, second antibody precipitation, vs normal rabbit serum): (24) x-fold
immuno-dot blot reactivity with 5-21-3 [5]: faint, diffuse reaction
